Results: PubChem BioAssay (NCI)
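GI50 is the concentration that inhibits growth by half. TGI marks complete inhibition of growth.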

Legend:
Experiment in all cases: NCI anticancer screen, dose series, 384-well format
MDA-MB-435 melanoma = tested on: MDA-MB-435 melanoma
HCC-2998 colon = tested on: HCC-2998 colon
A549 NSCLC = tested on: A549 NSCLC
M14 melanoma = tested on: M14 melanoma
NCI-H23 lung = tested on: NCI-H23 lung
DU-145 prostate = tested on: DU-145 prostate
COLO 205 colon = tested on: COLO 205 colon
LOX IMVI melanoma = tested on: LOX IMVI melanoma
OVCAR-8 ovarian = tested on: OVCAR-8 ovarian
UACC-62 melanoma = tested on: UACC-62 melanoma
ACHN renal = tested on: ACHN renal
TK-10 renal = tested on: TK-10 renal
MOLT-4 leukemia = tested on: MOLT-4 leukemia
MDA-MB-468 breast = tested on: MDA-MB-468 breast
SK-OV-3 ovarian = tested on: SK-OV-3 ovarian
SF-539 CNS = tested on: SF-539 CNS
HCT-116 colon = tested on: HCT-116 colon
HOP-92 NSCLC = tested on: HOP-92 NSCLC
SF-268 CNS = tested on: SF-268 CNS
OVCAR-3 ovarian = tested on: OVCAR-3 ovarian
NCI/ADR-RES ovarian = tested on: NCI/ADR-RES ovarian
EKVX NSCLC = tested on: EKVX NSCLC
HS 578T breast = tested on: HS 578T breast
T-47D breast = tested on: T-47D breast
BT-549 breast = tested on: BT-549 breast
SNB-75 CNS = tested on: SNB-75 CNS
UO-31 renal = tested on: UO-31 renal
MALME-3M melanoma = tested on: MALME-3M melanoma
SK-MEL-5 melanoma = tested on: SK-MEL-5 melanoma
U251 glioblastoma = tested on: U251 glioblastoma
HCT-15 colon = tested on: HCT-15 colon
PC-3 prostate = tested on: PC-3 prostate
NCI-H460 NSCLC = tested on: NCI-H460 NSCLC
OVCAR-5 ovarian = tested on: OVCAR-5 ovarian
IGROV1 ovarian = tested on: IGROV1 ovarian
MCF7 breast = tested on: MCF7 breast
HT29 colon = tested on: HT29 colon
HL-60(TB) leukemia = tested on: HL-60(TB) leukemia
HOP-62 NSCLC = tested on: HOP-62 NSCLC
RXF 393 renal = tested on: RXF 393 renal
NCI-H322M lung = tested on: NCI-H322M lung
OVCAR-4 ovarian = tested on: OVCAR-4 ovarian
CCRF-CEM leukemia = tested on: CCRF-CEM leukemia
CAKI-1 renal = tested on: CAKI-1 renal
SW-620 colon = tested on: SW-620 colon
UACC-257 melanoma = tested on: UACC-257 melanoma
KM12 colon = tested on: KM12 colon
K-562 leukemia = tested on: K-562 leukemia
SF-295 CNS = tested on: SF-295 CNS
NCI-H226 lung = tested on: NCI-H226 lung
786-0 renal = tested on: 786-0 renal
RPMI-8226 leukemia = tested on: RPMI-8226 leukemia

## COc1ncc(-c2ccc3nccc(-c4ccnnc4)c3c2)cc1NS(=O)(=O)c1ccc(F)cc1F
MDA-MB-435 melanoma
  GI50: 18.2 nM
  TGI: 1130 nM
HCC-2998 colon
  GI50: 14.3 nM
  TGI: 912 nM
A549 NSCLC
  GI50: < 10 nM
  TGI: 101 nM
M14 melanoma
  GI50: < 10 nM
  TGI: 1070 nM
NCI-H23 lung
  GI50: < 10 nM
  TGI: 2520 nM
DU-145 prostate
  GI50: 21.4 nM
  TGI: > 100000 nM
COLO 205 colon
  GI50: < 10 nM
  TGI: 125 nM
LOX IMVI melanoma
  GI50: 12.3 nM
  TGI: 135 nM
OVCAR-8 ovarian
  GI50: 23.4 nM
  TGI: 1850 nM
UACC-62 melanoma
  GI50: < 10 nM
  TGI: 33.3 nM
ACHN renal
  GI50: < 10 nM
  TGI: > 100000 nM
TK-10 renal
  GI50: < 10 nM
  TGI: 251 nM
MOLT-4 leukemia
  GI50: < 10 nM
  TGI: < 10 nM
MDA-MB-468 breast
  GI50: < 10 nM
  TGI: 11.7 nM
SK-OV-3 ovarian
  GI50: < 10 nM
  TGI: 51.3 nM
SF-539 CNS
  GI50: 13.8 nM
  TGI: 103 nM
HCT-116 colon
  GI50: 13.3 nM
  TGI: 1170 nM
HOP-92 NSCLC
  GI50: < 10 nM
  TGI: 46 nM
SF-268 CNS
  GI50: < 10 nM
  TGI: < 10 nM
OVCAR-3 ovarian
  GI50: < 10 nM
  TGI: 110 nM
NCI/ADR-RES ovarian
  GI50: 43 nM
  TGI: 1650 nM
EKVX NSCLC
  GI50: < 10 nM
  TGI: 98 nM
HS 578T breast
  GI50: < 10 nM
  TGI: 17.3 nM
T-47D breast
  GI50: < 10 nM
  TGI: < 10 nM
BT-549 breast
  GI50: < 10 nM
  TGI: 48.3 nM
SNB-75 CNS
  GI50: < 10 nM
  TGI: 14.2 nM
UO-31 renal
  GI50: < 10 nM
  TGI: 137 nM
MALME-3M melanoma
  GI50: < 10 nM
  TGI: 26.4 nM
SK-MEL-5 melanoma
  GI50: < 10 nM
  TGI: 43.6 nM
U251 glioblastoma
  GI50: 21.1 nM
  TGI: 1270 nM
HCT-15 colon
  GI50: < 10 nM
  TGI: 2960 nM
PC-3 prostate
  GI50: < 10 nM
  TGI: 97.6 nM
NCI-H460 NSCLC
  GI50: < 10 nM
  TGI: 51.5 nM
OVCAR-5 ovarian
  GI50: < 10 nM
  TGI: 1130 nM
IGROV1 ovarian
  GI50: < 10 nM
  TGI: < 10 nM
MCF7 breast
  GI50: < 10 nM
  TGI: 73400 nM
HT29 colon
  GI50: < 10 nM
  TGI: 1410 nM
HL-60(TB) leukemia
  GI50: < 10 nM
  TGI: 10.7 nM
HOP-62 NSCLC
  GI50: 25.7 nM
  TGI: 635 nM
RXF 393 renal
  GI50: < 10 nM
  TGI: 25.3 nM
NCI-H322M lung
  GI50: 11.1 nM
  TGI: 723 nM
OVCAR-4 ovarian
  GI50: 25.2 nM
  TGI: 480 nM
CCRF-CEM leukemia
  GI50: < 10 nM
  TGI: < 10 nM
CAKI-1 renal
  GI50: < 10 nM
  TGI: 106 nM
SW-620 colon
  GI50: 35.4 nM
  TGI: 1500 nM
UACC-257 melanoma
  GI50: 13.3 nM
  TGI: 87.3 nM
KM12 colon
  GI50: 21.9 nM
  TGI: 2190 nM
K-562 leukemia
  GI50: 44.2 nM
  TGI: 12500 nM
SF-295 CNS
  GI50: < 10 nM
  TGI: 54.1 nM
NCI-H226 lung
  GI50: 18.5 nM
  TGI: 2400 nM
786-0 renal
  GI50: 17.1 nM
  TGI: 276 nM
RPMI-8226 leukemia
  GI50: 15.5 nM
  TGI: 54.4 nM
